{"source": "patent US20240279263A1", "about": "“NOVEL SEA ALGAE-DERIVED ALKYL-AGARBIOSIDE, PREPARATION METHOD THEREFOR, OR USE THEREOF” (KOREA UNIVERSITY RESEARCH AND BUSINESS FOUNDATION, priority 2021, published 2024)", "key": {"[1]": {"assay": "pH stability (degree of denaturation over time at 25° C.)", "type": "physicochemical", "conditions": "for Stability over time at pH 3: pH 3 (20 mM citrate); for Stability over time at pH 7: pH 7 (20 mM Tris-HCl)", "description": "The pH stability of AB was assessed (C of FIG. 1). For a pH stability experiment, the degree of denaturation in each sample (AB) over time was measured at 25° C. under conditions of pH 3 (20 mM citrate), pH 7 (20 mM Tris-HCl), and pH 9 (20 mM Tris-HCl). […] Since the buffer and AB peaks were not separated at pH 3 using HPLC, AB was quantified through GC/MS analysis. The derivatization process for GC/MS analysis is as follows. After drying a purified sample with a speed vac, 10 μL of 40 mg/mL O-methylhydroxylamine hydrochloride in pyridine was added and reacted at 30° ° C. and 200 rpm for 90 minutes. Then, 45 μL of N-methyl-N-(trimethylsilyl)trifluoroacetamide was added and reacted at 37° C. and 200 rpm for 30 minutes. Instrument conditions for GC/MS analysis are as follows. A DB5-MS capillary column was used in the analysis, and the GC column temperature condition was maintained at 50° C. for 1 minute and then raised to 280° C. and maintained for 5 minutes. 1 μL of sample was analyzed in a splitless mode. Each concentration of […] at pH 7 and pH 9 was analyzed using HPLC. HPX-87H was used as a column, and the sample was analyzed at a column temperature of 65° C. and a flow rate of 0.5 mL/min. 0.005 M sulfuric acid was used as a mobile phase."}, "[2]": {"assay": "Temperature stability (denaturation/decomposition over time)", "type": "physicochemical", "conditions": "for Time for which stability was maintained at 4° C. / Time for which stability was maintained at 30° C.: HPLC", "description": "The temperature stability of agarobiose was tested. The experimental method measured the denaturation/decomposition degrees of AB and ethyl-agarobioside over time at 4° C., 30° C., and 45° C. […] AB and ethyl-agarobioside were quantified using HPLC."}, "[3]": {"system": "HaCaT cells", "assay": "MTT cytotoxicity test in HaCaT keratinocytes", "type": "cell-based, human", "conditions": "for Cytotoxicity: HaCaT cells, AB below 100 µg/mL", "description": "Cytotoxicity tests were performed using the MTT(3-4,5-dimethylthiazol-2yl)-2,5-diphenyl-2H-tetrazolium bromide) assay. HaCaT cells were cultured in an animal cell incubator at 37° C. and 5% CO2 in a laboratory using Dulbecco's Modified Eagle Medium (DMEM) containing 10% (v/v) FBS, 100 U/mL penicillin, and 100 µg/mL streptomycin as antibiotics. The produced AB was dissolved in DMSO and added to the culture medium at […], and cells were cultured in the medium for 24 hours. The cells were treated with an MTT solution (5 mg/mL) and cultured for another 4 hours, and then an amount of the produced formazan as a blue crystal, was measured by measuring absorbance at 595 nm using an ELISA reader. Toxicity to cells was expressed as a percentage of the average absorbance value of each control group. To investigate the cytotoxicity of AB in HaCaT keratinocytes, when AB was treated at a concentration of […], the degree of change in cell proliferation was calculated compared to control groups treated with only DMSO. The results of Example 1 are shown in A of FIG. 1.\nB of FIG. 1 illustrates the presence or absence of a cytotoxic effect when HaCaT keratinocytes are treated with AB according to an example of the present invention. Cell viability was measured to be 100% or more at 100 µg/mL AB."}, "[4]": {"system": "HAS2", "assay": "HAS2 expression in HaCaT cells by Western blot (moisturizing effect)", "type": "cell-based, human", "conditions": "for HAS2 expression compared to L-AHG: same concentration (100 μg/mL, FIG. 7)", "from_the_text": "Hyaluronan (HA) is a glycosaminoglycan composed of D-glucuronic acid and N-acetyl-D-glucosamine. Due to its ability to retain large amounts of water, HA plays an important role in regulating hydration and osmotic pressure. […] is synthesized in cell membranes by HAS1, HAS2, and HAS3, and HAS2 in particular appears in human normal tissues. […] Therefore, increasing HAS2 expression may be a great strategy to maintain skin homeostasis. To determine the AB induction time and AB concentration for HAS2 expression, Western blot analysis was performed. Cells used for the analysis were HaCaT cells, which were cultured at 37° C. in a 5% CO2 atmosphere using DMEM with 10% FBS and penicillin/streptomycin. Cells (1×10^5) were cultured in 6-cm dishes for 24 hours and then starved in serum-free medium for another 24 hours to remove the FBS effect on the activation of the kinase. Then, AB was treated at a certain time and concentration. Cells were lysed with a lysis buffer [20 mM Tris-HCl (pH 7.5), 150 mM NaCl, 1 mM Na2EDTA, 1 mM EGTA, 1% Triton X-100, 2.5 mM sodium pyrophosphate, 1 mM β-glycerophosphate, 1 mM Na3VO4, […] leupeptin, 1 mM phenylmethylsulfonyl fluoride (PMSF), and a protease inhibitor cocktail tablet]. The protein concentration was measured using a dye-conjugated protein assay kit (Bio-Rad Laboratories Inc.) according to the manufacturer's instructions. Dissolved proteins (20-40 μg) were subjected to 10% SDS-PAGE and transferred to a polyvinylidene fluoride (PVDF) membrane by electrophoresis (Millipore Corp., Bedford, MA, USA). After blotting, the membrane was blocked with 5% skim milk for 2 hours and incubated overnight at 4° C. with a primary antibody […]. Subsequently, the membrane was incubated with a secondary antibody (goat anti-rabbit IgG HRP-conjugated secondary antibody), and the protein bound to the antibody was detected using a chemiluminescence detection kit (Amersham Pharmacia Biotech, Piscataway, NJ). Representative values of two independent experiments were used as data. […] The moisturizing activity of AB was confirmed from the result."}, "[5]": {"system": "HAS2", "conditions": "Korean Registered Patent No. 10-1525298; cited from earlier work"}}, "data": [{"smiles": "OC[C@H]1O[C@@H](O[C@H]2[C@H]3OC[C@@H]2OC(O)[C@H]3O)[C@H](O)[C@@H](O)[C@H]1O", "note": "(mixture of isomers) [AB, agarobiose]", "values": [{"measurement": "Stability over time at pH 3", "setting": "[1]", "result": "stable"}, {"measurement": "Stability over time at pH 7", "setting": "[1]", "result": "stable"}, {"measurement": "Time to complete denaturation / decomposition at pH 9", "setting": "[1]; pH 9 (20 mM Tris-HCl)", "result": "≤ 6", "unit": "weeks"}, {"measurement": "Stability at 45° C.", "setting": "[2]", "result": "stability slowly decreased"}, {"measurement": "Time for which stability was maintained at 4° C.", "setting": "[2]", "result": 15, "unit": "weeks"}, {"measurement": "Time for which stability was maintained at 30° C.", "setting": "[2]", "result": 15, "unit": "weeks"}, {"measurement": "Cytotoxicity", "setting": "[3]", "result": "no cytotoxicity"}, {"measurement": "Cell viability", "setting": "[3]; HaCaT keratinocytes, 24 hours, 100 µg/mL AB, vs DMSO control", "result": "≥ 100", "unit": "%"}, {"measurement": "HAS2 expression, concentration dependence", "setting": "[4]; Western blot", "result": "increased HAS2 expression in a concentration-dependent manner"}, {"measurement": "HAS2 expression", "setting": "[4]; Western blot, 3 hours after treatment", "result": "increased HAS2 expression"}, {"measurement": "HAS2 expression compared to L-AHG", "setting": "[4]", "result": "greatly increased"}]}, {"smiles": "O=C[C@@H](O)[C@@H]1OC[C@H](O)[C@H]1O", "note": "[L-AHG, 3,6-anhydro-L-galactose]", "values": [{"measurement": "Moisturizing activity in HaCaT cells (previous study)", "setting": "[5]", "result": "has moisturizing activity"}]}, {"smiles": "CCOC1O[C@H]2CO[C@H]([C@@H]2O[C@@H]2O[C@H](CO)[C@H](O)[C@H](O)[C@H]2O)[C@@H]1O", "note": "(stereo partly shown) [ethyl-agarobioside]", "values": [{"measurement": "Stability over time at pH 3", "setting": "[1]", "result": "maintained"}, {"measurement": "Stability over time at pH 7", "setting": "[1]", "result": "maintained"}, {"measurement": "Stability over time at pH 9", "setting": "[1]; pH 9 (20 mM Tris-HCl)", "result": "maintained"}, {"measurement": "Stability at 45° C.", "setting": "[2]", "result": "less stable than AB after 6 weeks"}, {"measurement": "Time for which stability was maintained at 4° C.", "setting": "[2]", "result": 15, "unit": "weeks"}, {"measurement": "Time for which stability was maintained at 30° C.", "setting": "[2]", "result": 15, "unit": "weeks"}, {"measurement": "Conversion product at 45° C.", "setting": "[2]; 45° C., HPLC analysis of reactant components", "result": "converted to AB"}, {"measurement": "Cytotoxicity", "setting": "[3]", "result": "without cytotoxicity"}, {"measurement": "HAS2 expression compared to L-AHG", "setting": "[4]", "result": "greatly increased"}, {"measurement": "Moisturizing activity (HAS2 expression level)", "setting": "[4]; same manner as Example 1", "result": "exhibits moisturizing activity"}]}]}
